Data reported in patent publication US5332574A, “Compounds produced by a strain of Streptomyces exfoliatus” (Bristol-Myers Squibb Company, priority 1993, dated 1994).
In brackets after ≈: the same amount, converted by molar mass. Where two headings read alike, the source gives them in different places.

How the values were obtained:
Assay in all cases: MIC, serial two-fold agar dilution method
Assay type in all cases: cell-based
[1] = tested on: Bacillus subtilis ATCC 6633
Experimental: (§1) The minimum inhibitory concentrations (MICs) of BU-4726G-A and BU-4726G-B were determined against various bacteria and fungi by the serial two-fold agar dilution method. Nutrient agar medium (Eiken) was used for bacteria and Sabouraud dextrose agar medium (Difco) for fungi.
(§2) Medium: Nutrient agar (Eiken, pH 7.0)
(§3) Inoculum size: 10^5 cells/ml
(§4) Inoculated conditions: 32° C., 20 hours

[2] = tested on: Staphylococcus aureus 209P
Experimental: as §1, §2, §3, §4

[3] = tested on: Staphylococcus aureus Smith
Experimental: as §1, §2, §3, §4

[4] = tested on: Staphylococcus epidermidis 11-1168; details: 111168, Nutrient agar pH 7.0, 10^5 cells/ml, 32° C., 20 hours
Experimental: as §1, §2, §3, §4

Escherichia coli K12 = details: Nutrient agar pH 7.0, 10^5 cells/ml, 32° C., 20 hours
Experimental: as §1, §2, §3, §4

Salmonella typhi 901 = details: Salmonella enterica, 20 h, pH 7
Experimental: as §1, §2, §3, §4

[5] = tested on: Streptococcus faecalis A2808; details: Enterococcus faecalis, A2808, 20 h, pH 7
Experimental: as §1, §2, §3, §4

[6] = tested on: Micrococcus luteus ATCC 9341
Experimental: as §1, §2, §3, §4

[7] = tested on: Staphylococcus aureus A15036(MRSA)
Experimental: as §1, §2, §3, §4

[8] = tested on: Pseudomonas aeruginosa A9843 A; details: A9843A
Experimental: as §1, §2, §3, §4

[9] = tested on: Klebsiella pneumoniae PCI 602
Experimental: as §1, §2, §3, §4

Escherichia coli Juhl = tested on: Escherichia coli Juhl
Experimental: as §1, §2, §3, §4

Row | Structure (SMILES) | MIC ([1]; ATCC6633, Bacillus subtilis ATCC 6633, Nutrient agar pH 7.0, 10^5 cells/ml, 32° C., 20 hours, read-out: MIC) | MIC ([2]; Staphylococcus aureus 209P, Nutrient agar pH 7.0, 10^5 cells/ml, 32° C., 20 hours, read-out: MIC) | MIC ([3]; Staphylococcus aureus Smith, Nutrient agar pH 7.0, 10^5 cells/ml, 32° C., 20 hours, read-out: MIC) | MIC [4] | MIC (Escherichia coli K12) | MIC (Salmonella typhi 901) | MIC [5] | MIC ([6]; ATCC9341, Micrococcus luteus ATCC 9341, Nutrient agar pH 7.0, 10^5 cells/ml, 32° C., 20 hours, read-out: MIC) | MIC ([7]; Staphylococcus aureus A15036(MRSA), Nutrient agar pH 7.0, 10^5 cells/ml, 32° C., 20 hours, read-out: MIC) | MIC ([8]; Pseudomonas aeruginosa A9843 A, Nutrient agar pH 7.0, 10^5 cells/ml, 32° C., 20 hours, read-out: MIC) | MIC ([9]; PCI602, Klebsiella pneumoniae PCI 602, Nutrient agar pH 7.0, 10^5 cells/ml, 32° C., 20 hours, read-out: MIC) | MIC (Escherichia coli Juhl; Escherichia coli Juhl, Nutrient agar pH 7.0, 10^5 cells/ml, 32° C., 20 hours, read-out: MIC) | MIC ([1]; Bacillus subtilis, ATCC6633, 20 h, pH 7) | MIC ([2]; Staphylococcus aureus, 209P, 20 h, pH 7) | MIC ([3]; Staphylococcus aureus, 20 h, pH 7) | MIC ([6]; Micrococcus luteus, ATCC9341, 20 h, pH 7) | MIC ([7]; Staphylococcus aureus, MRSA, 20 h, pH 7) | MIC ([8]; Pseudomonas aeruginosa, 20 h, pH 7) | MIC ([9]; Klebsiella pneumoniae, PCI602, 20 h, pH 7) | MIC (Escherichia coli Juhl; Escherichia coli, 20 h, pH 7)
1 | NCC[C@H](O)C(=O)N[C@@H]1C[C@H](N)[C@@H](O[C@H]2O[C@H](CN)[C@@H](O)[C@H](O)[C@H]2O)[C@H](O)[C@H]1O[C@H]1O[C@H](CO)[C@@H](O)[C@H](N)[C@H]1O [Amikacin] | 0.4 µg/mL (≈ 0.683 µM) | 0.4 µg/mL (≈ 0.683 µM) | 1.6 µg/mL (≈ 2.73 µM) | 50 µg/mL (≈ 85.4 µM) | 0.8 µg/mL (≈ 1.37 µM) | 3.1 µg/mL (≈ 5.29 µM) | 50 µg/mL (≈ 85.4 µM) | 3.1 µg/mL (≈ 5.29 µM) | 3.1 µg/mL (≈ 5.29 µM) | 3.1 µg/mL (≈ 5.29 µM) | 0.4 µg/mL (≈ 0.683 µM) | 3.1 µg/mL (≈ 5.29 µM) |  |  |  |  |  |  |  | 
2 | N[C@@H](C(=O)N[C@@H]1C(=O)N2C(C(=O)O)=C(Cl)CS[C@H]12)c1ccccc1 [Cefaclor] |  |  |  |  | 0.4 µg/mL (≈ 1.09 µM) | 0.2 µg/mL (≈ 0.544 µM) | 25 µg/mL (≈ 68 µM) |  |  |  |  |  | < 0.05 µg/mL | 0.8 µg/mL (≈ 2.18 µM) | 0.4 µg/mL (≈ 1.09 µM) | < 0.05 µg/mL | 25 µg/mL (≈ 68 µM) | > 100 µg/mL | 0.2 µg/mL (≈ 0.544 µM) | 0.4 µg/mL (≈ 1.09 µM)
